Like-named read-outs stand apart in the source and are kept apart here.
Target: SARS-CoV-2 NSP3 macrodomain (Mac1), P43 crystal form (Severe acute respiratory syndrome coronavirus 2, UniProt P0DTD1)
Format: binding
Conditions: for 1-BDC: PanDDA background density correction; for Total number of conformations: ligand conformations modeled in Mac1 crystal structure; for 2*(1-BDC) (%): occupancy estimate from PanDDA 1-BDC; for X-ray crystallography: Binding site: site where the ligand is bound in the X-ray crystal structure
[1] = crystal soak, soak concentration 10 mM
[2] = crystal soak, soak concentration 10 mM, TRUE = ligand hit
[3] = crystal structure with Mac1 determined (TRUE)
[4] = site of ligand in Mac1 crystal structure
[5] = X-ray crystal structure determined (TRUE)
[6] = crystal soak 10 mM, P43 crystals
[7] = site of ligand in X-ray crystal structure
[8] = crystal soak 10 mM, TFA/DMSO background map

OC[C@@H]1C[C@H](F)CN1c1ncnc2[nH]ccc12 [AVI-609]
1-BDC: 0.17
Pandda run, overall: Modeled [1]: TRUE
Pandda run, overall: Hit [2]: TRUE
Total number of conformations: 1
2*(1-BDC) (%): 34%
X-ray crystallography: Binding site: Adenosine
PanDDA run, DMSO background map: 1-BDC (soak concentration 10 mM): 0.17
PanDDA run, DMSO background map: Hit (soak concentration 10 mM): TRUE

NC(=O)C1(O)CCN(c2ncnc3[nH]ccc23)C1 (stereo not drawn) [AVI-611]
1-BDC: 0.22
Pandda run, overall: Modeled [1]: TRUE
Pandda run, overall: Hit [2]: TRUE
X-ray crystal structure [3]: TRUE
Total number of conformations: 2
2*(1-BDC) (%): 44%
Binding site [4]: Adenosine
PanDDA run, DMSO background map: 1-BDC (soak concentration 10 mM): 0.22
PanDDA run, DMSO background map: Hit (soak concentration 10 mM): TRUE

CCC1(O)CCN(c2ncnc3[nH]ccc23)C1 (stereo not drawn) [AVI-612]
1-BDC: 0.17
Pandda run, overall: Modeled (crystal soak, soak concentration 5 mM): TRUE
Pandda run, overall: Hit (crystal soak, soak concentration 5 mM, TRUE = ligand hit): TRUE
X-ray crystal structure [3]: TRUE
Total number of conformations: 1
2*(1-BDC) (%): 34%
Binding site [4]: Adenosine
PanDDA run, DMSO background map: 1-BDC (soak concentration 5 mM): 0.17
PanDDA run, DMSO background map: Hit (soak concentration 5 mM): TRUE

CN(C)C[C@@]1(O)CCCN(c2ncnc3[nH]ccc23)C1 [AVI-614]
Pandda run, overall: Modeling comment [1]: Weak density, not modeled
Pandda run, overall: Hit [2]: TRUE
PanDDA run, DMSO background map: 1-BDC (soak concentration 10 mM): 0.17
PanDDA run, DMSO background map: Hit (soak concentration 10 mM): TRUE

O[C@@H]1CN(c2ncnc3[nH]ccc23)C[C@H]1F [AVI-616]
1-BDC: 0.2
Pandda run, overall: Modeled [1]: TRUE
Pandda run, overall: Hit [2]: TRUE
X-ray crystal structure [3]: TRUE
Total number of conformations: 1
2*(1-BDC) (%): 40%
Binding site [4]: Adenosine
PanDDA run, DMSO background map: 1-BDC (soak concentration 10 mM): 0.2
PanDDA run, DMSO background map: Hit (soak concentration 10 mM): TRUE

O=C(O)C(F)(F)F.OC1c2ccccc2CC1Nc1ncnc2[nH]ccc12 (stereo not drawn) [AVI-3634]
Pandda run, overall: Modeling comment [1]: TFA only

CCC(Nc1ncnc2[nH]ccc12)C(C)O (stereo not drawn) [AVI-3635]
1-BDC: 0.14
X-ray crystal structure [5]: TRUE
Pandda run, overall: Hit [6]: TRUE
Pandda run, overall: Modeled [6]: TRUE
PanDDA run, DMSO background map: 1-BDC (crystal soak 10 mM): 0.14
PanDDA run, DMSO background map: Hit (crystal soak 10 mM): TRUE
Pandda run, overall: Hit [2]: TRUE
Total number of conformations: 2
2*(1-BDC) (%): 28%
Binding site [7]: Adenosine
PanDDA run, DMSO background map: 1-BDC (soak concentration 10 mM): 0.23
PanDDA run, DMSO background map: Hit (soak concentration 10 mM): TRUE

OCC(CC(F)(F)F)Nc1ncnc2[nH]ccc12 (stereo not drawn) [AVI-3637]
1-BDC: 0.23
X-ray crystal structure [5]: TRUE
Pandda run, overall: Modeled [1]: TRUE
Pandda run, overall: Hit [2]: TRUE
Total number of conformations: 1
2*(1-BDC) (%): 46%
Binding site [7]: Adenosine
PanDDA run, DMSO background map: 1-BDC (soak concentration 10 mM): 0.23
PanDDA run, DMSO background map: Hit (soak concentration 10 mM): TRUE

OCC(Nc1ncnc2[nH]ccc12)C1CCC1 (stereo not drawn) [AVI-3638]
1-BDC: 0.13
X-ray crystal structure [5]: TRUE
Pandda run, overall: Hit [6]: TRUE
Pandda run, overall: Modeled [6]: TRUE
PanDDA run, DMSO background map: 1-BDC (crystal soak 10 mM): 0.13
PanDDA run, DMSO background map: Hit (crystal soak 10 mM): TRUE
Total number of conformations: 1
2*(1-BDC) (%): 26%
Binding site [7]: Adenosine

O=C(O)C(F)(F)F.O[C@H]1CCC[C@@H]1Nc1ncnc2[nH]ccc12 [AVI-3639]
1-BDC: 0.11
X-ray crystal structure [5]: TRUE
Pandda run, overall: Hit [6]: TRUE
Pandda run, overall: Modeled [6]: TRUE
PanDDA run, DMSO background map: 1-BDC (crystal soak 10 mM): 0.11
PanDDA run, DMSO background map: Hit (crystal soak 10 mM): TRUE
Total number of conformations: 1
2*(1-BDC) (%): 22%
Binding site [7]: Adenosine

OCC(CC1CCC1)Nc1ncnc2[nH]ccc12 (stereo not drawn) [AVI-3641]
1-BDC: 0.18
X-ray crystal structure [5]: TRUE
Pandda run, overall: Hit [6]: TRUE
Pandda run, overall: Modeled [6]: TRUE
PanDDA run, DMSO background map: 1-BDC (crystal soak 10 mM): 0.18
PanDDA run, DMSO background map: Hit (crystal soak 10 mM): TRUE
Total number of conformations: 1
2*(1-BDC) (%): 36%
Binding site [7]: Adenosine

OCC(CC(O)c1ccccc1)Nc1ncnc2[nH]ccc12 (stereo not drawn) [AVI-3642]
1-BDC: 0.17
X-ray crystal structure [5]: TRUE
Pandda run, overall: Hit [6]: TRUE
Pandda run, overall: Modeled [6]: TRUE
PanDDA run, DMSO background map: 1-BDC (crystal soak 10 mM): 0.17
PanDDA run, DMSO background map: Hit (crystal soak 10 mM): TRUE
Total number of conformations: 1
2*(1-BDC) (%): 34%
Binding site [7]: Adenosine

CCC(CO)Nc1ncnc2[nH]ccc12 (stereo not drawn) [AVI-3643]
1-BDC: 0.16
X-ray crystal structure [5]: TRUE
Pandda run, overall: Hit [6]: TRUE
Pandda run, overall: Modeled [6]: TRUE
PanDDA run, DMSO background map: 1-BDC (crystal soak 10 mM): 0.16
PanDDA run, DMSO background map: Hit (crystal soak 10 mM): TRUE
Total number of conformations: 1
2*(1-BDC) (%): 32%
Binding site [7]: Adenosine

C#CCC(CO)Nc1ncnc2[nH]ccc12 (stereo not drawn) [AVI-3644]
1-BDC: 0.18
X-ray crystal structure [5]: TRUE
Pandda run, overall: Hit [6]: TRUE
Pandda run, overall: Modeled [6]: TRUE
PanDDA run, DMSO background map: 1-BDC (crystal soak 10 mM): 0.18
PanDDA run, DMSO background map: Hit (crystal soak 10 mM): TRUE
Total number of conformations: 1
2*(1-BDC) (%): 36%
Binding site [7]: Adenosine

O=C(O)C(F)(F)F.OCC(Nc1ncnc2[nH]ccc12)C1CCCO1 (stereo not drawn) [AVI-3645]
Pandda run, overall: Hit [6]: TRUE
Pandda run, overall: Modeling comment [6]: Weak density, not modeled
PanDDA run, DMSO background map: 1-BDC (crystal soak 10 mM): 0.22
PanDDA run, DMSO background map: Hit (crystal soak 10 mM): TRUE
PanDDA run, TFA/DMSO background map: 1-BDC [8]: 0.12
PanDDA run, TFA/DMSO background map: Hit [8]: TRUE

OC1CCCN(c2ncnc3[nH]ccc23)C1 (stereo not drawn) [AVI-3646]
1-BDC: 0.22
Pandda run, overall: Hit [6]: TRUE
Pandda run, overall: Modeled [6]: TRUE
PanDDA run, DMSO background map: 1-BDC (crystal soak 10 mM): 0.22
PanDDA run, DMSO background map: Hit (crystal soak 10 mM): TRUE
X-ray crystal structure [3]: TRUE
Total number of conformations: 1
2*(1-BDC) (%): 44%
Binding site [4]: Adenosine

CC(C)(C)CC(CO)Nc1ncnc2[nH]ccc12 (stereo not drawn) [AVI-3648]
1-BDC: 0.13
X-ray crystal structure [5]: TRUE
Pandda run, overall: Hit [6]: TRUE
Pandda run, overall: Modeled [6]: TRUE
PanDDA run, DMSO background map: 1-BDC (crystal soak 10 mM): 0.13
PanDDA run, DMSO background map: Hit (crystal soak 10 mM): TRUE
Total number of conformations: 1
2*(1-BDC) (%): 26%
Binding site [7]: Adenosine

OCC(Nc1ncnc2[nH]ccc12)C1CCCC1 (stereo not drawn) [AVI-3649]
1-BDC: 0.16
X-ray crystal structure [5]: TRUE
Pandda run, overall: Hit [6]: TRUE
Pandda run, overall: Modeled [6]: TRUE
PanDDA run, DMSO background map: 1-BDC (crystal soak 10 mM): 0.16
PanDDA run, DMSO background map: Hit (crystal soak 10 mM): TRUE
Total number of conformations: 1
2*(1-BDC) (%): 32%
Binding site [7]: Adenosine

OCC(Cc1c[nH]c2ccccc12)Nc1ncnc2[nH]ccc12 (stereo not drawn) [AVI-3650]
1-BDC: 0.15
X-ray crystal structure [5]: TRUE
Pandda run, overall: Hit [6]: TRUE
Pandda run, overall: Modeled [6]: TRUE
PanDDA run, DMSO background map: 1-BDC (crystal soak 10 mM): 0.15
PanDDA run, DMSO background map: Hit (crystal soak 10 mM): TRUE
Total number of conformations: 2
2*(1-BDC) (%): 30%
Binding site [7]: Adenosine

OC(c1ccccc1)C1CCCN1c1ncnc2[nH]ccc12 (stereo not drawn) [AVI-3652]
1-BDC: 0.22
Pandda run, overall: Hit [6]: TRUE
Pandda run, overall: Modeled [6]: TRUE
PanDDA run, DMSO background map: 1-BDC (crystal soak 10 mM): 0.22
PanDDA run, DMSO background map: Hit (crystal soak 10 mM): TRUE
Total number of conformations: 1
2*(1-BDC) (%): 44%
X-ray crystallography: Binding site: Adenosine

— doi:10.1101/2024.08.25.609621 (bioRxiv, 2024)
